From US20080262011A1, “Modulator” (priority 2004, published 2008)

These molecules were tested against T1, CB1 receptors (Rattus norvegicus, UniProt P20272) (assay: Radioligand binding assay: displacement of [3H]SR141716A from rat cerebellar homogenates). Conditions: not given.
T1 construct: cerebellar membranes (400 μg wet weight per tube) were thoroughly mixed in a final volume of 0.5 mL; from tissue; host or cells: rat cerebellum (Male Wistar rats), membrane homogenate
Experimental: SR141716A from rat cerebellar homogenates. […] (M).
Radioligand binding assays provide a simple measure of activity at the CB1 receptors. For functional activity, the vas deferens or cyclic 3′,5′-adenosine monophosphate (cAMP) assays described below are used. The assays are carried out with a protocol modified from the literature using the CB1 receptor antagonist [^3H] SR141716A (0.5 nM) in rat brain membranes. Male Wistar rats (150-200 g), which were allowed free access to food and water, were used. Briefly, animals were killed by cervical dislocation and cerebella dissected into ice-cold 0.25 M sucrose. Homogenates were prepared by suspension of cerebella in ice-cold 50 mM, pH 7.4 HEPES (assay) buffer using an Ultra-Turrax™ homogeniser. Homogenates were subsequently centrifuged at 45,000 rpm for 15 min at 4° C., and re-suspended in fresh ice-cold assay buffer to give a final concentration of 1 mg/mL wet weight. Compounds under test were dissolved in dimethyl sulfoxide (DMSO) and transferred to 14 mL polypropylene test tubes. [^3H] SR141617A {final concentration of approximately 0.5 nM prepared in assay buffer containing 0.1% v/v tris(2-butoxyethyl)phosphate} and cerebellar membranes (400 μg wet weight per tube) were thoroughly mixed in a final volume of 0.5 mL and incubated for 1 h at 37° C. The tubes were transferred to a Brandel filtration apparatus, 5 mL ice-cold assay buffer added, and the tube contents vacuum-aspirated through Whatman GF/C glass fibre filters. A further 5 mL of ice-cold wash buffer was added to tubes and the wash/vacuum cycle repeated a further three times. The filters were transferred to plastic Mini-PolyQ™ vials, Picofluor™ liquid scintillant added, and radioactivity (dpm) was quantified using a Beckman LS6000 Liquid Scintillation Counter. The concentrations of competing ligand (test compounds) to produce 50% displacement of the radioligand (IC50) from specific binding sites were computed using Origin™, by fitting total bound ligand (y-axis as dpm) against compound concentration (x-axis, log 10[x] as M) to the logistic equation y=a+b/[1+exp{−c(x−IC50)}]. Where a=lower asymptote, b=specific bound and c=slope function.

T1 sequence (P20272 whole entry): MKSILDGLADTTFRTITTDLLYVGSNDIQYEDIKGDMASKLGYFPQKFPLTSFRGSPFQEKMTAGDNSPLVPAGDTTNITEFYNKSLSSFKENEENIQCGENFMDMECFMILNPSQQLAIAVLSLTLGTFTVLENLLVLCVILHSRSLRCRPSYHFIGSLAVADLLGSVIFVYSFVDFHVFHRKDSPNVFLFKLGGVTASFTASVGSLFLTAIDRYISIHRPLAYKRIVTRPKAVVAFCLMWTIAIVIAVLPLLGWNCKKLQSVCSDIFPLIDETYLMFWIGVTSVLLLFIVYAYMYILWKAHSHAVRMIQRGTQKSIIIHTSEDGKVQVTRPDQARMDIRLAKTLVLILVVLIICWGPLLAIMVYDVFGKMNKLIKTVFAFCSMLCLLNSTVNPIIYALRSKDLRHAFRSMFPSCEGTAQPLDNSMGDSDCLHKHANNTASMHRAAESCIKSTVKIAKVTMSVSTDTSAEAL

SMILES	IC50 [nM]
CCCCCCC(C)(C)c1ccc(-c2cc(Cl)cc(Cl)c2)c(O)c1 [VSN28, 3′,5′-Dichloro-4-(1,1-dimethylheptyl)-1,1′-biphenyl-2-ol]	2200
CCCCCCC(C)(C)c1ccc(-c2cccc(CO)c2)c(O)c1 [VSN31, 4-(1,1-Dimethylheptyl)-3′-(hydroxymethyl)-1,1′-biphenyl-2-ol]	1600
CCCCCCC(C)(C)c1ccc(-c2cccc(O)c2)c(O)c1 [VSN13, 4-(1,1-Dimethylheptyl)-1,1′-biphenyl-2,3′-diol]	1500
CCCCCCC(C)(C)c1ccc(-c2cccnc2)c(O)c1 [VSN26, 5-(1,1-Dimethylheptyl)-2-pyridin-3-yl phenol]	3600
CCCCCCC(C)(C)c1ccc(-c2ccncc2)c(O)c1 [VSN27, 5-(1,1-Dimethylheptyl)-2-pyridin-4-yl phenol]	1600
CCCCCCC(C)(C)c1ccc(-c2cc(C)cc(C)c2)c(O)c1 [VSN29, 3′,5′-Dimethyl-4-(1,1-dimethylheptyl)-1,1′-biphenyl-2-ol]	200
CCCCCCC(C)(C)c1ccc(-c2cccc(NC(C)=O)c2)c(O)c1 [VSN30, N-[4′-(1,1-dimethylheptyl)-2′-hydroxy-1,1′-biphenyl-3-yl]-acetamide]	24600

Same assay, conditions: displacement of [3H]SR141716A (0.5 nM), rat cerebellar membranes; read-out: IC50

SMILES	IC50 [nM]
CN(C)C(=O)CCCCC(C)(C)c1ccc(-c2cccc(O)c2)c(O)c1 [VSN32]	500

The molecules below were run against T2, central CB1 receptors (Mus musculus, UniProt P47746) (assay: Psychotropic activity: adverse cannabimimetic (tetrad) effects in mice). Conditions: in vivo, FIG. 6 legend.
T2 construct: from tissue; host or cells: whole animal (normal mice), CNS
T2 sequence (P47746 whole entry): as the sequence (P20272 whole entry) above, with E95D counted along it
Experimental: Many CB1 agonists are known to induce psychotropic associated “tetrad effects” due to central binding to CB receptors [Howlett, A. C. et al, International Union of Pharmacology. XXVII, Pharmacol. Rev. 2002, 54, 161-202]. Studies were undertaken to investigate whether the compounds of the present invention also bound to central CB1 receptors. This is assessed by measuring the ability of the compounds to induce sedation, ptosis, hypomotility, catalepsy and hypothermia in normal mice [Brooks, J. W. et al, Eur. J. Pharmacol. 2002, 439, 83-92], following i.v., i.p. and oral administration.

SMILES	adverse cannabimimetic effects
CCCCCCC(C)(C)c1ccc(-c2cccc(O)c2)c(O)c1 [VSN13, 4-(1,1-Dimethylheptyl)-1,1′-biphenyl-2,3′-diol]	does not exhibit adverse cannabimimetic effects
